Assay results from ChEMBL document CHEMBL1795230, “Conformational variability of different sulfonamide inhibitors with thienyl-acetamido moieties attributes to differential binding in the active site of cytosolic human carbonic anhydrase isoforms” (Bioorg Med Chem, 2011).

Tests used:
Carbonic anhydrase 3 = Carbonic anhydrase 3 (Homo sapiens, UniProt P07451)
Carbonic anhydrase 13 = Carbonic anhydrase 13 (Homo sapiens, UniProt Q8N1Q1)
Sequence of Carbonic anhydrase 13 (Q8N1Q1 whole entry): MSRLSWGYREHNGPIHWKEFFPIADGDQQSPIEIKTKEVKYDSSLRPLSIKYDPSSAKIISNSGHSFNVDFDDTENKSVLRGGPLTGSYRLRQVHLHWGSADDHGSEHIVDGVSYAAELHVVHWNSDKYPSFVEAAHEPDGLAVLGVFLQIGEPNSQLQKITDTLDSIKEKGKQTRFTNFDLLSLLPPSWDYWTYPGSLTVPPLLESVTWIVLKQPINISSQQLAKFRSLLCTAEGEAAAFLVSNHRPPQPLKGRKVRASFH

Sequence of Carbonic anhydrase 3 (P07451 whole entry): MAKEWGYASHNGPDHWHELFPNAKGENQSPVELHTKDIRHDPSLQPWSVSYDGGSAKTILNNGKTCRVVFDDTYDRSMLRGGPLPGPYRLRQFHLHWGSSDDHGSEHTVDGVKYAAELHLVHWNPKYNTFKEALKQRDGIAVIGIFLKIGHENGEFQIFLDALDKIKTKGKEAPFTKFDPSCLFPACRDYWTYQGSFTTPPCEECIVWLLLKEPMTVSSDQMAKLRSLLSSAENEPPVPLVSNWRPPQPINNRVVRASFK

Ki (Carbonic anhydrase 3) | Ki (Carbonic anhydrase 13) | SMILES
800000 nM | 125 nM | NS(=O)(=O)c1ccc(NC(=O)Cc2cccs2)cc1
– | 23 nM | NS(=O)(=O)c1cc(Cl)c(Cl)c(S(N)(=O)=O)c1 [DICHLORPHENAMIDE]
